Assay results: patent US9981928B2, “Aryl sulfide derivatives and aryl sulfoxide derivatives as acaricides and insecticides” (BAYER CROPSCIENCE AKTIENGESELLSCHAFT, priority 2013, dated 2018)
Where two headings read alike, the source gives them in different places.

Assay: log P determination by HPLC on reversed-phase columns (C 18), analogously to OECD Guideline 117
Format: physicochemical
Conditions: for chromatographic logP: reversed-phase C18 HPLC column; for logP (HCOOH): LC-MS in the acidic range, pH 2.7, 0.1% aqueous formic acid / acetonitrile; for logP (HCOOH) / logP (neutral): HPLC reversed-phase C 18; for logP (neutral): LC-MS in the neutral range, pH 7.8, 0.001 molar aqueous ammonium hydrogencarbonate / acetonitrile
Procedure: The log P values were determined analogously to OECD Guideline 117 (EC Directive 92/69/EEC) by HPLC (high-performance liquid chromatography) using reversed-phase columns (C 18), by the following methods:
[a] The LC-MS determination in the acidic range was effected at pH 2.7 with 0.1% aqueous formic acid and acetonitrile (contains 0.1% formic acid) as eluents; linear gradient from 10% acetonitrile to 95% acetonitrile. log P^[a] is also referred to as log P(HCOOH). [b] LC-MS determination in the neutral range was effected at pH 7.8 with 0.001 molar aqueous ammonium hydrogencarbonate solution and acetonitrile as eluents; linear gradient from 10% acetonitrile to 95% acetonitrile. log P^[…] is also referred to as log P(neutral).

[1] = acidic range, pH 2.7, 0.1% aqueous formic acid and acetonitrile, read-out: log P[a] / log P(HCOOH)
[2] = neutral range, pH 7.8, 0.001 molar aqueous ammonium hydrogencarbonate and acetonitrile, read-out: log P[b] / log P(neutral)

Structure (SMILES) | chromatographic logP [1] | chromatographic logP [2] | logP (HCOOH) | logP (neutral)
Cc1cc(F)c(N2C(=O)C(=O)N(CC(F)F)C2=O)cc1[S+]([O-])CC(F)(F)F (stereo not drawn) [Example 103, 1-(2,2-Difluoroethyl)-3-{2-fluoro-4-methyl-5-[(2,2,2-trifluoroethyl)sulfinyl]phenyl}imidazolidine-2,4,5-trione] | 2.32 | 0.87 | – | –
CCC(C)n1c(=O)n(C2CC2)c(=O)n1-c1cc(SCC(F)(F)F)c(C)cc1F (stereo not drawn) [Example 73] | – | – | 3.86 | 3.72
Cn1c(=O)n(C2CC2)c(=O)n1-c1cc(SCC(F)(F)F)c(F)cc1F [Example 71] | – | – | 2.67 | 2.62
CCn1c(=O)n(-c2cc([S+]([O-])CC(F)(F)F)c(C)cc2F)c(=O)n1CC (stereo not drawn) [Example 119, 1,2-Diethyl-4-{2-fluoro-4-methyl-5-[(2,2,2-trifluoroethyl)sulfinyl]phenyl}-1,2,4-triazolidine-3,5-dione] | 2.07 | – | – | –
Cc1cc(F)c(-n2c(=O)n(C)c(=O)n2-c2cc(F)c(C#N)cc2F)cc1SCC(F)(F)F [Example 78] | – | – | 3.40 | 3.29
Cc1cc(F)c(-n2c(=O)n(C3CC3)c(=O)n2C)cc1[S+]([O-])CC(F)(F)F (single isomer, unassigned) [Example 197] | – | – | 1.97 | 1.89
CCn1c(=O)n(C(C)C)c(=O)n1-c1cc([S+]([O-])CC(F)(F)F)c(C)cc1F (stereo not drawn) [Example 93] | – | – | 2.58 | 2.54
COc1ccc(B2OC(C)(C)C(C)(C)O2)cc1SCC(F)(F)F [2-{4-Methoxy-3-[(2,2,2-trifluoroethyl)sulfanyl]phenyl}-4,4,5,5-tetramethyl-1,3,2-dioxaborolane] | 4.54 | 4.46 | – | –
CCC(C)n1c(=O)n(C2CC2)c(=O)n1-c1cc([S+]([O-])CC(F)(F)F)c(C)cc1F (stereo not drawn) [Example 75] | – | – | 2.73 | 2.68
CCn1c(=O)n(CC(C)C)n(-c2cc(SCC(F)(F)F)c(C)cc2F)c1=O [Example 148] | – | – | 3.82 | 3.78
Cc1cc(F)c(-n2c(=O)n(C)c(=O)n2C2C=CCCC2)cc1[S+]([O-])CC(F)(F)F (stereo not drawn) [Example 96] | – | – | 2.66 | 2.61
Cc1cc(F)c(NCC(C)O)cc1SCC(F)(F)F (stereo not drawn) [1-[2-Fluoro-4-methyl-5-(2,2,2-trifluoroethylsulfanyl)aniline]propan-2-ol] | 3.01 | – | – | –
Cc1cc(F)c(-n2c(=O)[nH]n(C)c2=O)cc1SCC(F)(F)F [4-[2-Fluoro-4-methyl-5-[(2,2,2-trifluoroethyl)sulfanyl]phenyl]-1-methyl-1,2,4-triazolidine-3,5-dione] | 2.02 | – | – | –
Cc1cc(F)c(NC(=S)NCC(F)(F)F)cc1SCC(F)(F)F [1-{2-Fluoro-4-methyl-5-[(2,2,2-trifluoroethyl)sulfanyl]phenyl}-3-(2,2,2-trifluoroethyl)thiourea] | 3.32 | 3.24 | – | –
Cc1cc(F)c(-n2c(=O)n(C(C)C)c(=O)n2CC(F)(F)F)cc1SCC(F)(F)F [Example 146] | – | – | 3.85 | 3.90
Cc1cc(F)c(-n2c(=O)n(C)c(=O)n2C2CCCC2)cc1SCC(F)(F)F [Example 86] | – | – | 3.75 | 3.67
Cc1cc(F)c(-n2c(=O)n(C3CC3)c(=O)n2C(C)(C)C)cc1SCC(F)(F)F [Example 144] | – | – | 4.08 | 4.07
CCn1c(=O)n(CC)n(-c2ccc(C)c(SCC(F)(F)F)c2)c1=O [Example 100, 1,4-Diethyl-2-{4-methyl-3-[(2,2,2-trifluoroethyl)sulfanyl]phenyl}-1,2,4-triazolidine-3,5-dione] | 3.32 | 3.29 | – | –
CCn1c(=O)n(-c2ccccc2)c(=O)n1-c1cc([S+]([O-])CC(F)(F)F)c(C)cc1F (stereo not drawn) [Example 88, 1-Ethyl-2-{2-fluoro-4-methyl-5-[(2,2,2-trifluoroethyl)sulfinyl]phenyl}-4-phenyl-1,2,4-triazolidine-3,5-dione] | 2.71 | 2.66 | – | –
Cc1cc(F)c(-n2c(=O)n(C3CC3)c(=O)n2C)cc1SCC(F)(F)F [Example 128] | – | – | 3.49 | 3.45
CC1(C)OB(c2cc(SCC(F)(F)F)c(Cl)cc2Cl)OC1(C)C [2-{2,4-Dichloro-5-[(2,2,2-trifluoroethyl)sulfanyl]phenyl}-4,4,5,5-tetramethyl-1,3,2-dioxaborolane] | 5.68 | 5.31 | – | –

Continued, values first:

chromatographic logP [1] | chromatographic logP [2] | logP (HCOOH) | logP (neutral) | Structure (SMILES)
0.83 | – | – | – | Cn1[nH]c(=O)n(C(C)(C)C)c1=O [drawing 120 R1=CH3 R10=C(CH3)3, 4-tert-butyl-1-methyl-1,2,4-triazolidine-3,5-dione]
1.21 | – | – | – | O=c1[nH]n(Cc2ccccc2)c(=O)n1C1CC1 [drawing 120 R1=benzyl R10=cyclopropyl, 1-benzyl-4-cyclopropyl-1,2,4-triazolidine-3,5-dione]
4.39 | 4.36 | – | – | Fc1cc(Br)c(SCC(F)(F)F)cc1Br [VIIa-14, 1,4-Dibromo-2-fluoro-5-[(2,2,2-trifluoroethyl)sulfanyl]benzene]
2.4 | 2.41 | – | – | OB(O)c1ccc(Cl)c(SCC(F)(F)F)c1 [VIIIa-3, {4-Chloro-3-[(2,2,2-trifluoroethyl)sulfanyl]phenyl}boronic acid]
– | – | 4.27 | 4.21 | Cc1cc(F)c(-n2c(=O)n(C(C)C)c(=O)n2CC(C)C)cc1SCC(F)(F)F [Example 149]
0.84 | 0.88 | – | – | Cn1c(OCC2CC2)n[nH]c1=O [drawing 121 R1=CH2-cyclopropyl R10=CH3, 5-(cyclopropylmethoxy)-4-methyl-2,4-dihydro-3H-1,2,4-triazol-3-one]
– | – | 2.69 | 1.10 | Cc1cc(F)c(-n2[nH]c(=O)n(-c3cccc(C(F)(F)F)c3)c2=O)cc1[S+]([O-])CC(F)(F)F (racemic) [Example 158]
1.61 | 1.61 | – | – | Cc1cc(C)c([S+]([O-])CC(F)(F)F)cc1B(O)O (stereo not drawn) [VIIIb-11, {2,4-Dimethyl-5-[(2,2,2-trifluoroethyl)sulfinyl]phenyl}boronic acid]
2.81 | – | – | – | Cc1cc(F)c(NC(=O)C(C)(C)O)cc1SCC(F)(F)F [N-[2-Fluoro-4-methyl-5-(2,2,2-trifluoroethylsulfanyl)phenyl]-2-hydroxy-2-methylpropanamide]
2.05 | – | – | – | Cc1cc(F)c(N2C(=O)N(C)C(=O)C2(C)C)cc1[S+]([O-])CC(F)(F)F (stereo not drawn) [Example 216, 1-[2-Fluoro-4-methyl-5-(2,2,2-trifluoroethylsulfinyl)phenyl]-3,5,5-trimethylimidazolidine-2,4-dione]
0.62 | – | – | – | CCn1[nH]c(=O)n(C(C)C)c1=O [drawing 120 R1=CH2CH3 R10=CH(CH3)2, 1-ethyl-4-isopropyl-1,2,4-triazolidine-3,5-dione]
2.58 | 2.57 | – | – | Cc1cc(C)c(B(O)O)cc1SCC(F)(F)F [VIIIa-11, {2,4-Dimethyl-5-[(2,2,2-trifluoroethyl)sulfanyl]phenyl}boronic acid]
0.82 | – | – | – | CCC(C)n1[nH]c(=O)n(C2CC2)c1=O (stereo not drawn) [drawing 120 R1=CH(CH3)CH2CH3 R10=cyclopropyl, 1-sec-butyl-4-cyclopropyl-1,2,4-triazolidine-3,5-dione]
0.78 | – | – | – | Cn1c(=O)[nH]n(C2CCCC2)c1=O [drawing 120 R1=cyclopentyl R10=CH3, 1-cyclopentyl-4-methyl-1,2,4-triazolidine-3,5-dione]
1.94 | 1.93 | – | – | COc1ccc(B(O)O)cc1SCC(F)(F)F [VIIIa-8, {4-Methoxy-3-[(2,2,2-trifluoroethyl)sulfanyl]phenyl}boronic acid]
2.61 | 2.52 | – | – | OB(O)c1cc(SCC(F)(F)F)c(Cl)cc1Cl [VIIIa-6, {2,4-Dichloro-5-[(2,2,2-trifluoroethyl)sulfanyl]phenyl}boronic acid]
0.27 | – | – | – | CC(C)n1c(=O)[nH]n(C)c1=O [drawing 120 R1=CH3 R10=CH(CH3)2, 4-isopropyl-1-methyl-1,2,4-triazolidine-3,5-dione]
0.45 | 0.47 | – | – | C=CCn1c(OC)n[nH]c1=O [drawing 121 R1=CH3 R10=CH2CH═CH2, 4-allyl-5-methoxy-2,4-dihydro-3H-1,2,4-triazol-3-one]
4.29 | 4.25 | – | – | FC(F)(F)CSc1cc(Br)ccc1Br [VIIa-13, 1,4-Dibromo-2-[(2,2,2-trifluoroethyl)sulfanyl]benzene]
1.86 | 1.51 | – | – | [O-][S+](CC(F)(F)F)c1cc(B(O)O)c(Cl)cc1Cl (stereo not drawn) [VIIIb-6, {2,4-Dichloro-5-[(2,2,2-trifluoroethyl)sulfinyl]phenyl}boronic acid]
1.36 | 1.37 | – | – | COc1ccc(B(O)O)cc1[S+]([O-])CC(F)(F)F (stereo not drawn) [VIIIb-8]
1 | 1.03 | – | – | C=CCOc1n[nH]c(=O)n1C1CC1 [drawing 121 R1=CH2CH═CH2 R10=cyclopropyl, 5-(allyloxy)-4-cyclopropyl-2,4-dihydro-3H-1,2,4-triazol-3-one]
